Laboratory results reported in patent US8663619B2, “Murgantiol as an indoor stink bug attractant” (Sterling International Inc., priority 2011, dated 2014).

Legend:
[1] = system: Harlequin bug, Murgantia histrionica (Hahn); settings: both sexes; insect-produced and synthetic murgantiol; laboratory bioassays; cited from earlier work
[2] = system: brown marmorated stink bug (BMSB), Halyomorpha halys (Stål); assay: Indoor trapping experiment with murgantiol-baited Rescue! Stink Bug Traps in homes; type: in vivo; settings: for behavioral attraction of indoor stink bugs to baited traps: 5 mg lure on rubber septum, traps inside homes, early May, compared to blank control; for stink bugs caught relative to the blank control traps: 5 mg lure, indoor traps, blank control caught average 1 bug/trap
Protocol: A trapping experiment was carried out inside three homes with decent overwintering stink bug populations in Pittsburgh, Pa., during twelve days in early May to study potential attraction of the BMSB adults to a known Harlequin bug pheromone, murgantiol. During or before the experiment, overwintering stink bugs started waking up from their hibernation stage and walking/crawling inside homes. Three treatment lures and a blank control were tested using Sterling Rescue!® Stink Bug Traps (FIG. 1) in a block design. The three treatments included (i) 5 mg of more polar murgantiol mixture (a mixture of 8 more polar stereoisomers); (ii) 5 mg of less polar murgantiol mixture (a mixture of 8 less polar stereoisomers); and (iii) 5 mg of a racemic mixture of all 16 murgantiol stereoisomers. The test samples of (i), (ii), and (iii) were synthesized and separated based on the methods described by Zahn et al., J. Chem. Ecol. 34:238 (2008). The following scheme outlines the method starting from citronellal to prepare a racemic mixture of stereomers:
Lures were prepared by loading hexane solutions of the test compounds with 1% butylated hydroxytoluene (BHT) added as stabilizer onto grey rubber septa (5 mm sleeve-type; The West Co., Lititz, Pa.) via a rotor evaporator. The blank control dispensers were made in the same fashion as the treatment lures, but without any murgantiol mixtures—that is, rubber septum with hexane only. A set of four Sterling Rescue!® Stink Bug Traps baited with three different isomer mixture test samples of murgantiol dispensers and the blank control were set up in the same room of each selected home on the floor or hung from walls near windows (where stink bug activities were seen earlier). The starting positions of the four test traps within each set (room) were assigned randomly. The distance between traps within the same set was about 8-10 feet, depending on the size of each test room. Traps were checked every day and emptied when ≧5 bugs were captured in the best trap within the set, and their positions were re-randomized for a new replicate to minimize any positional effects.
Trap catch data were converted to proportion (P) of total captured bugs within each replicate to meet the assumptions of normality and homogeneity of variances for ANOVA (analysis of variance). Means were compared by ANOVA followed by the Duncan's multiple range test at α=0.05.

Row | Compound | attraction of sexually mature Harlequin bugs [1] | attractiveness to BMSB adults indoors ([2]; both sexes, indoors during the overwintering and transition periods) | behavioral attraction of indoor stink bugs to baited traps [2] | stink bugs caught relative to the blank control traps [2]
1 | CC(CCC1OC1(C)C)C1C=CC(C)(O)CC1 (stereo not shown) [murgantiol, 4-[3-(3,3-dimethyloxiran-2-yl)-1-methylpropyl]-1-methylcyclohex-2-en-1-ol] | attracted sexually mature Harlequin bugs of both sexes | strongly attractive | – | –
2 | CC(CCC1OC1(C)C)C1C=CC(C)(O)CC1 (single isomer, unassigned) [more polar murgantiol mixture] | – | – | strong attraction | six times
3 | CC(CCC1OC1(C)C)C1C=CC(C)(O)CC1 (racemic) [racemic mixture of all 16 murgantiol stereoisomers] | – | – | significant attraction | five times
4 | CC(CCC1OC1(C)C)C1C=CC(C)(O)CC1 (single isomer, unassigned) [less polar murgantiol mixture] | – | – | weakly attractive | –
